Laboratory results from publication PMC11100219, “Dual-function antimicrobial-antibiofilm peptide hybrid to tackle biofilm-forming Staphylococcus epidermidis” (Annals of Clinical Microbiology and Antimicrobials, 2024).
Converted amounts (≈) assume the structure as drawn. Residues, ends and D or L forms follow the SMILES beside them.

Experiments:
[1] = system: planktonic S. epidermidis; experiment: Time-killing analysis; type: cell-based, Staphylococcus epidermidis; conditions: for number of S. epidermidis: within 4 h, MHB, 37°C
Procedure: The time-dependent bactericidal activity of BiF2_5K7K against planktonic S. epidermidis was determined as previously described. In brief, mid-log phase bacteria in MHB were exposed to BiF2_5K7K at MIC and/or MBC for 24 h at 37°C. The bacterial suspensions were obtained at specific time point (0, 2, 4, 6, 8 and 24 h), and 10-fold serially diluted with PBS and then plated on TSA. Untreated bacterial suspension was served as a control. After incubation, the number of CFUs was determined by colony count.

S. epidermidis = experiment: Serum stability by MIC in human serum; type: cell-based, Staphylococcus epidermidis; conditions: 10^6 CFU/mL, 24 h, 37°C
Procedure: The stability of BiF2_5K7K in the presence of human serum was assessed by evaluating the MIC values, as previously described. Human serum was subjected to heat inactivation at 56°C for 30 min. Bacterial suspensions were then adjusted to a concentration of 10^6 CFU/mL in MHB supplemented with 25% and 50% human serum. These suspensions were mixed with two-fold serially diluted concentrations of BiF2_5K7K (ranging from 0.98 to 250 µg/mL) and incubated at 37°C for 24 h. MICs were subsequently determined as described above. The study protocol was ethically approved by the Thammasat University Ethics Committee (COA No. 066/2562). All volunteers provided written informed consent.

[2] = system: all gram-negative bacterial strains; experiment: Mean MIC and therapeutic index, gram-negative strains; type: cell-based; conditions: four gram-negative strains
Procedure: (§1) The minimal inhibitory concentrations (MICs) of peptide derivatives versus planktonic bacteria were assessed using a modification of the broth microdilution assay previously described in the National Committee for Clinical Laboratory Standards (NCCLS). In brief, bacteria at mid-logarithmic growth were collected by centrifugation at 2,500 × g for 5 min. Subsequently, the pellet was resuspended and adjusted in Mueller-Hinton Broth (MHB; BD Bacto™, USA) to an OD620 of 0.05. Fifty µL of bacterial suspensions was transferred to 96-well microplates. Later, 50 µL of peptide derivatives at 0.98–250 µg/mL in 10 mM PBS, was added to wells and incubated for 24 h at 37°C with continuous shaking at 220 rpm. […] The experiments were done in three technical replicates and repeated independently.
(§2) The therapeutic index (TI) is widely used for evaluating a peptide’s efficacy and safety. It is the ratio between the minimum hemolytic concentration (MHC, the concentration causing 10% hemolysis) and the geometric mean (GM) value of the MIC [15]. […] While, both lysine-substituted peptides (BiF2_7K and BiF2_5K7K) had higher TIs against all tested biofilm-forming bacteria than did the two parent peptides, and the TI of BiF2_5K7K was higher than that of BiF2_7K.

[3] = system: all gram-positive bacterial strains; experiment: Mean MIC and therapeutic index, gram-positive strains; type: cell-based; conditions: four gram-positive strains
Procedure: as §1, §2

[4] = system: Staphylococcus epidermidis ATCC 35984; experiment: Broth microdilution MIC / MBC; type: cell-based; conditions: plating of non-turbid wells on TSA, 24 h, 37°C
Procedure: as §1
(§3) To determine minimal bactericidal concentrations (MBCs) of the peptides, 50 µL of supernatant from non-turbid wells was plated on TSA, and the number of colony-forming units (CFUs) was observed after 24 h of incubation at 37°C. MBC was defined as the minimum concentration of peptide at which no bacterial colony was observed on the plate.

[5] = system: Acinetobacter baumanii MT strain; experiment: Broth microdilution MIC / MBC; type: cell-based; conditions: 24 h, 37°C
Procedure: as §1, §3

[6] = system: Salmonella Typhimurium ATCC 13311; experiment: Broth microdilution MIC / MBC; type: cell-based; conditions: 24 h, 37°C
Procedure: as §1, §3

[7] = system: mature S. epidermidis biofilm; experiment: Confocal laser scanning microscopy of mature biofilm; type: cell-based, Staphylococcus epidermidis
Procedure: The effect of BiF2_5K7K against mature biofilm was also investigated. In short, overnight cultures of S. epidermidis were diluted to 10^7 CFU/mL with TSB and further incubated at 37°C for 24 h to form biofilms. Next, wells were rinsed with sterile water and mature biofilms was treated with BiF2_5K7K at concentration of MBEC50 and further incubated for 24 h. Subsequently, biofilms were washed again, then stained with green Alexa-ConA and LIVE/DEADTM BacLight™ Bacterial Viability Kit (Invitrogen™, Thermo Fisher, USA) for 15 min. After staining, 2.5% glutaraldehyde was used to fixed biofilms, then observed under CLSM as described above.

[8] = system: S. epidermidis biofilm formation genes (ica, agr); experiment: Transcriptional analysis, real-time RT-PCR; type: cell-based, Staphylococcus epidermidis; conditions: at MBIC50, 24 h
Procedure: The expression level of S. epidermidis biofilm formation gene was investigated using a real-time reverse transcription-polymerase chain reaction. In brief, total RNA of S. epidermidis biofilm, both untreated and treated with BiF2_5K7K (at MBIC50 for 24 h), was extracted by a RNeasy PowerBiofilm Kit (Qiagen, USA) and immediately reverse transcribed to cDNA by iScript reserve transcription supermix (Biolabs, UK). RNAprotect Bacteria Reagent (Qiagen, USA) was used to preserve RNA during isolation. Remaining DNA was removed by treatment with DnaseI (Biolabs, UK). Real-time RT-PCR was done in duplicate using iTaq Universal SYBR Green Supermix (Bio-Rad, USA) with 5 ng of cDNA and […] of forward and reverse primers (Table S1) using a CFX96 Real-Time PCR Detection System (Bio-Rad, USA). The cycling condition was started with an initial denaturation at 95°C for 2 min, followed by 50 amplification cycles consisting of 95°C for 30 s, 56°C for 1 min, and 72°C for 1 min. Subsequently, a melting curve was generated from 65°C to 95°C at intervals of 1 s at the end of each run. To analyse the relative quantitation of gene expression, 2^− ΔΔCt method was used, and 16S ribosomal subunit (rRNA) was served as the reference or housekeeping gene.

[9] = broth microdilution, MHB, 0.98-250 µg/mL, visible inspection
[10] = plating of non-turbid wells on TSA

## CC[C@H](C)[C@H](NC(=O)[C@H](CCCCN)NC(=O)[C@H](CCCCN)NC(=O)[C@@H](NC(=O)[C@H](CC(C)C)NC(=O)[C@@H](N)Cc1ccccc1)C(C)C)C(=O)N[C@@H](CCCCN)C(=O)N[C@@H](CCCCN)C(=O)N[C@H](C(=O)N[C@@H](CC(C)C)C(=O)N[C@@H](CCCNC(=N)N)C(=O)N[C@@H](CCCNC(=N)N)C(N)=O)[C@@H](C)CC [BiF2_5K7K] (H-FLVKKIKKILRR-NH2; N-terminus assumed)
[1]; peptide at MBC
  number of S. epidermidis: approximately 10^3 CFU/mL
[1]; peptide at MIC, after 8 h
  regrowth: regrowth was observed
[1]; peptide at MIC
  number of S. epidermidis: approximately 10^3 CFU/mL
S. epidermidis; MHB with 25% heat-inactivated human serum
  MIC in the presence of human serum: 15.63 mg/L
S. epidermidis; MHB with 50% heat-inactivated human serum
  MIC in the presence of human serum: 15.63 mg/L
[2]
  GM-, geometric mean of MIC values from all gram-negative bacterial strains: 93.75 mg/L
[3]
  GM +, geometric mean of MIC values from all gram-positive bacterial strains: 199.22 mg/L
[4]
  MBC: 31.25 mg/L (≈ 20.3 µM)
[5]; [9]
  MIC: 31.2 mg/L (≈ 20.3 µM)
[5]; [10]
  MBC: 31.2 mg/L (≈ 20.3 µM)
[6]; [9]
  MIC: 31.25 mg/L (≈ 20.3 µM)
[6]; [10]
  MBC: 62.5 mg/L (≈ 40.6 µM)
[7]; at MBEC50, 24 h, p-value < 0.01
  fluorescence intensity ratio (live to dead cells), treated vs untreated: significant difference
[7]; at MBEC50, 24 h treatment
  mature biofilm matrix (Alexa-ConA fluorescence intensity): significant decrease
[8]
  agrC and agrA gene expression: neither agrC nor agrA gene expression changed at all
  expression of quorum-sensing genes agrD and agrB vs untreated control: reduced
  levels of icaC or icaR genes: no alteration
[8]; 2^-ΔΔCt, 16S rRNA reference, significantly upregulated
  relative expression level of icaA, icaD and icaB genes: greater than 1
